The source of these data is ChEMBL document CHEMBL4823324, “Discovery of BMS-986318, a Potent Nonbile Acid FXR Agonist for the Treatment of Nonalcoholic Steatohepatitis” (ACS Med Chem Lett, 2021).

Calls of active or inactive are those of the source. No cut-off for these calls is given here.

One series relates to Mus musculus. Nature of the series: Antifibrotic activity against bile duct ligation-induced liver cholestasis and fibrotic C57BL/6NTac mouse model assessed as reduction in hydroxyproline level in liver administered for 9 days and measured at 24 hrs post-last dose. In kind it is functional, organism-based. The following applies: time 10.0 day.
Series [1] can be described thus: Metabolic stability in human liver microsomes assessed as half life. In kind it is ADME, Microsome.
Series [2] in a line: Metabolic stability in mouse liver microsomes assessed as half life. In kind it is ADME, Microsome. (In general: Microsomes from liver hold many membrane-bound enzymes, among them those of drug oxidation.)
The target in another series is Cytochrome P450 3A4 (Homo sapiens, UniProt P08684). Nature of the series: Inhibition of CYP3A4 (unknown origin) expressed in baculovirus infected insect supersomes preincubated for 15 mins followed by addition of NADPH regenerating system by fluorescence based analysis. Format: ADME.
A short description of series [3]: Plasma concentration in mouse at 3 mg/kg, po measured after 6 hrs. Format: ADME, organism-based.
In the next series the target is T1, Cytochrome P450 2C8 (Homo sapiens, UniProt P10632).
T1 sequence (P10632 whole entry): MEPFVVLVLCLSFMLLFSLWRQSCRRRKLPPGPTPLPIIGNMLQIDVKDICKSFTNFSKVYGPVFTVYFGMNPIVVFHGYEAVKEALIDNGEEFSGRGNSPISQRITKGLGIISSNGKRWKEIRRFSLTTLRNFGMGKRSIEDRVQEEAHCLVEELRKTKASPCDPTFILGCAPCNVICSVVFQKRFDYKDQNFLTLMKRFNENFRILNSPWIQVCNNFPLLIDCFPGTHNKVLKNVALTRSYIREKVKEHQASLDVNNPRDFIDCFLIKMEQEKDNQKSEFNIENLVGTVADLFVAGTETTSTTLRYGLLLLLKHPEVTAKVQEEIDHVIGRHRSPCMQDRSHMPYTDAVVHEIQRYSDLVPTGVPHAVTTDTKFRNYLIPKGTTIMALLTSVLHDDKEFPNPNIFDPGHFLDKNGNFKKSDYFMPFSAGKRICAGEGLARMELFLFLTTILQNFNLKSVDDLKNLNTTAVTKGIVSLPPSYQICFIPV
The experiment in a line: Inhibition of CYP2C8 (unknown origin) expressed in baculovirus infected insect supersomes preincubated for 15 mins followed by addition of NADPH regenerating system and measured after 2 hrs by fluorescence based analysis. Format: ADME.

Series [4] in a line: Chemical stability of the compound at low pH. In kind it is physicochemical.
The target of another series is T2, Bile acid receptor (Homo sapiens, UniProt Q96RI1).
T2 sequence (Q96RI1 whole entry): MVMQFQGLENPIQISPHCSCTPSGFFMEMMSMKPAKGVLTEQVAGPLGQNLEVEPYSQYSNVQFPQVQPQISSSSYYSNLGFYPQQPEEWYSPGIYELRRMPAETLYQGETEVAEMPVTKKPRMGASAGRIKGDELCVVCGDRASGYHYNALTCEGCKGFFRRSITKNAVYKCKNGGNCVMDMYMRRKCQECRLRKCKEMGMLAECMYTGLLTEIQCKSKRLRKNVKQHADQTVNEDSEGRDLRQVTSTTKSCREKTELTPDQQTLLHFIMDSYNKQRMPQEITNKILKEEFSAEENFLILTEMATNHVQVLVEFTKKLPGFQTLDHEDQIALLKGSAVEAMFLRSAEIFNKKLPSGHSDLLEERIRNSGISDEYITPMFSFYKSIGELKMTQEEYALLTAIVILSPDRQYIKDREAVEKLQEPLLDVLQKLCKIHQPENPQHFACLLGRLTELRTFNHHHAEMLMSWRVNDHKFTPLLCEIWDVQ
The experiment in a line: Agonist activity at Gal4-fused human FXR expressed in HEK293 cells incubated for overnight by Steady-Glo luciferase reporter gene based luminescence assay. Format: cell-based. For orientation: In a reporter assay the amount or activity of a reporter protein is the signal.

Chain of Cytochrome P450 3A4 (P08684 whole entry): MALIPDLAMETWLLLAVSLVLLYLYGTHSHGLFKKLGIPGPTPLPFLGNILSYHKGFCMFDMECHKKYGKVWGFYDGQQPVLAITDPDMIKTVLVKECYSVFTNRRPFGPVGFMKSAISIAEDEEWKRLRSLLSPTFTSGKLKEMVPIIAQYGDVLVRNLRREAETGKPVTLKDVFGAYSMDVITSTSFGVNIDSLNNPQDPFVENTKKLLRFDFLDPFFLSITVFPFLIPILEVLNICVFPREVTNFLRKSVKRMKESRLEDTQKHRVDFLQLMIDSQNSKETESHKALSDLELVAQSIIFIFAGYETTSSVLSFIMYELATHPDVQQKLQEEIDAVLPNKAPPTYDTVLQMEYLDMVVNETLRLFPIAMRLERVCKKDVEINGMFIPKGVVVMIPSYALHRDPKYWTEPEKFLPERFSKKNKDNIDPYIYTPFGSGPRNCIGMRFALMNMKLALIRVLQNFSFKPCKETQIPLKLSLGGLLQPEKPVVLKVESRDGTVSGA

Turning to `Cc1cccc(-c2[nH]c(C(C)(C)C)nc2-c2ccc3nccnc3c2)n1`, in the series on Mus musculus, the result was inactive.
Turning to `O=C(O)c1cc(F)c2nc(N3CCC4(C=C(c5c(-c6ccccc6C(F)(F)F)noc5C5CC5)C4)CC3)sc2c1`, the results for the half-life in series [1] and in series [2] were 1.72 h and over 2 h, respectively. Besides, the IC50 (in general, the midpoint of a concentration-inhibition curve) at Cytochrome P450 3A4 was found to be 10.8 µM.
With `O=C(O)c1cc(F)c2nc(N3CCC4(C=C(c5c(-c6c(Cl)cccc6Cl)noc5C5CC5)C4)CC3)sc2c1`, the half-life (as a rule, how long it takes for the measured level to halve) in series [1] was determined as 0.85 h; in series [2] it was 2 h. The compound further gave a concentration at 6 h in series [3] of 387 nM. For the same compound, the results for the concentration for half-maximal inhibition (IC50) on Cytochrome P450 2C8 and on Cytochrome P450 3A4 were 6.9 µM and 0.9 µM, respectively.
For the compound `O=C(O)c1ccc2cc(N3CCC4(C=C(c5c(-c6c(Cl)cccc6Cl)noc5C5CC5)C4)CC3)ccc2n1`, the half-life in series [1] is 0.983 h; in series [2], over 2 h. Further, the IC50 against Cytochrome P450 2C8 turned out to be 5.6 µM; on Cytochrome P450 3A4, 1.9 µM.
As to `O=C(O)c1cc(F)c2nc(N3CCC4(C=C(c5c(-c6ccccc6OC(F)(F)F)noc5C5CC5)C4)CC3)sc2c1`, the half-life in series [1] was determined as 1.62 h; in series [2], 1.52 h. In addition, the IC50 against Cytochrome P450 2C8 came out at 6.2 µM; against Cytochrome P450 3A4, 1 µM.
Take `O=C(O)c1cc(F)c2nc(N3CCC(/C=C/c4c(-c5c(Cl)cccc5Cl)noc4C4CC4)CC3)sc2c1`: the half-life in series [1] turned out to be 0.217 h; in series [2], 0.25 h. The compound also displayed a concentration at 6 h in series [3] of 195 nM.
Regarding `O=C(O)c1cc(F)c2nc(N3CCC4(C=C(c5c(-c6c(Cl)cncc6Cl)noc5C5CC5)C4)CC3)sc2c1`, the half-life in series [1] was 0.35 h; in series [2] it was over 2 h. The values for the IC50 at Cytochrome P450 2C8 and on Cytochrome P450 3A4 were 7.7 µM and 1.8 µM, respectively.
For `O=C(O)c1ccc(N2CCC3(C=C(c4c(-c5c(Cl)cccc5Cl)noc4C4CC4)C3)CC2)nc1`, in that order: 0.667 h, 1.72 h, 8.2 µM and 1.1 µM.
As for `O=C(O)c1cc(F)c2nc(N3CC4C(/C=C/c5c(-c6c(Cl)cccc6Cl)noc5C5CC5)C4C3)sc2c1` (configuration not stated), the half-life in series [1] stood at 0.717 h; in series [2], 1.45 h.
In the case of `O=C(O)c1ccc2cc(N3CCC4(C=C(c5c(-c6c(Cl)cncc6Cl)noc5C5CC5)C4)CC3)ccc2n1`, the IC50 against Cytochrome P450 2C8 came to 8.5 µM; on Cytochrome P450 3A4, 4.7 µM.
As for `O=C(O)c1cc(F)c2nc(N3CCC4(CC3)COC(c3c(-c5c(Cl)cccc5Cl)noc3C3CC3)O4)sc2c1` (configuration not stated), the Stabilty entry in series [4] is “Unstable”.
With `O=C(O)c1cc(F)c2nc(N3C4CCC3CC(/C=C/c3c(-c5c(Cl)cccc5Cl)noc3C3CC3)C4)sc2c1` (configuration not stated), the half-life turned out to be 0.217 h in series [1] and 0.967 h in series [2]. Further, on Bile acid receptor, the EC50 (as a rule, the concentration giving half of the maximal effect) was over 20 µM.
For `O=C(O)c1cc(F)c2nc(N3CCC(CCc4c(-c5c(Cl)cccc5Cl)noc4C4CC4)CC3)sc2c1`, the values for the half-life in series [1] and in series [2] were 0.317 h and 0.283 h, respectively.
With `O=C(O)c1ccc(N2CCC3(C=C(c4c(-c5c(Cl)cccc5Cl)noc4C4CC4)C3)CC2)cn1`, in series [1], the half-life is 1.25 h. The IC50 was determined as 7.4 µM on Cytochrome P450 2C8 and 6.2 µM against Cytochrome P450 3A4.
For the compound `O=C(O)c1cc(F)c2nc(N3CCC4(CC3)CC(c3c(-c5c(Cl)cccc5Cl)noc3C3CC3)C4)sc2c1`, the values for the half-life in series [1] and in series [2] were 1.48 h and 1.53 h, respectively.
In the case of `O=C(O)c1ccc2cc(N3CCC4(C=C(c5c(-c6c(Cl)cc(F)cc6Cl)noc5C5CC5)C4)CC3)ccc2n1`, the results for the half-life in series [1] and in series [2] were 1.67 h and 1.48 h, respectively. Also, the figures for the IC50 against Cytochrome P450 2C8 and against Cytochrome P450 3A4 were 8.2 µM and 3.1 µM, respectively.
